Measurements reported in patent publication US20220184056A1, “USE OF KDM5A GENE AND ATRX GENE” (SHENZHEN CHIPSCREEN BIOSCIENCES, CO., LTD., priority 2019, published 2022).
“And” between values parts separate entries of the source, which are not always exact repeats. Equal entries are not always repeated.

What was measured:
[1] = test system: relapsed and refractory small cell lung cancer; experiment: Phase Ib clinical trial of Chiauranib monotherapy for relapsed and refractory small cell lung cancer, with ctDNA biomarker study (KDM5A, ATRX); assay type: in vivo, human
Method: According to the present invention, a phase Ib clinical trial of using Chiauranib capsules to treat relapsed and refractory small cell lung cancer was carried out, and a concomitant study of efficacy-related biomarkers for 548 tumor-related genes was carried out by detecting and analyzing plasma free tumor DNA (ctDNA). Blood samples were taken from all patients before enrollment, and gene sequences of tumor-related genes were detected, including gene mutations and copy number abnormalities. According to detection results, genes with mutation rates of more than 0.4% were all selected, and progression free survival (PFS) and objective response rates (ORR) of patients were taken as efficacy indicators to analyze the correlation between tumor-related gene abnormalities and the efficacy of Chiauranib.
Test drug: Chiauranib capsules, with specifications of 5 mg and 25 mg. They were manufactured by Shenzhen Chipscreen Biosciences Co., Ltd.
Dosing regimen: the Chiauranib capsules were administered QD at 50 mg/day (not adjusted according to the body weight or the body surface area). The capsules were taken on an empty stomach every morning with water, and the whole capsules were swallowed completely. Continuous administration for 28 days was one treatment cycle, and there was no interval during each treatment cycle.
Number of cases: 25 patients were enrolled.
The test subjects took 50 mg of Chiauranib capsules orally once daily, every 28 days was taken as one treatment cycle, and there was no withdrawal interval during the treatment cycles. All subjects received continuous treatment throughout the trial period until any one of the following occurred (whichever occurred first): progressed disease, intolerable toxicity, death, withdrawal of the informed consent, or loss to follow-up.
Efficacy evaluation: according to the RECIST 1.1 criteria, evaluations were respectively performed in the baseline period and at the end of the 4th week after treatment, and repeated every 8 weeks until a progressive disease occurred. Tumor imageological examinations included CT or MRI of neck, chest, whole abdomen, and pelvic cavity. Other site examinations should be performed as necessary according to clinical indications. The same technologies and methods should be used for baseline of lesions and subsequent evaluation and measurement.
10 mL of peripheral blood was taken before the subjects took Chiauranib for the first time and when a progressive disease occurred, gene sequences of plasma free tumor DNA (ctDNA) and leukocyte extracted DNA (control) were detected, a total of 548 tumor-related genes were included, and detection results included gene mutations and copy number abnormalities, as well as analysis of tumor mutation burden (TMB).
Plasma free tumor DNA (ctDNA) of the evaluated patients was detected and analyzed, and a concomitant study of efficacy-related biomarkers for the 548 tumor-related genes was carried out. According to detection results, genes with mutation rates of more than 0.4% were all selected, and progression free survival (PFS) and objective response (PR) of the patients were taken as efficacy indicators to analyze the correlation between tumor-related gene abnormalities and the efficacy of Chiauranib.

SCLC = settings: topotecan combined optimal supportive treatment vs optimal supportive treatment alone; cited from earlier work

SMILES | efficacy of monotherapy in the treatment of small cell lung cancer ([1]; 50 mg QD oral) | benefit rate ([1]; 20 evaluated patients, 50 mg QD oral) [%] | ORR ([1]; 20 evaluated patients, 50 mg QD oral, RECIST 1.1) [%] | Non-response (SD + PD), number of patients ([1]; ATRX mutation (6 patients)) [patients] | Non-response (SD + PD), share of patients ([1]; ATRX mutation (6 patients)) [%] | Objective response (PR), number of patients ([1]; ATRX mutation (6 patients)) [patients] | Objective response (PR), share of patients ([1]; ATRX mutation (6 patients)) [%] | Non-response (SD + PD), number of patients ([1]; ATRX wild type (14 patients)) [patients] | Non-response (SD + PD), share of patients ([1]; ATRX wild type (14 patients)) [%] | Objective response (PR), number of patients ([1]; ATRX wild type (14 patients)) [patients] | Objective response (PR), share of patients ([1]; ATRX wild type (14 patients)) [%] | PFS Hazard ratio (HR) ([1]; KDM5A wild type vs mutation, P value 0.0087) | patients with best efficacy evaluation being partial response (PR) ([1]; among 20 evaluated patients) [patients] | PFS, Median (95% CI) ([1]; patients with KDM5A gene mutation (n = 8)) | PFS, Median (95% CI) ([1]; patients with wild-type KDM5A gene (n = 12)) | Overall survival, quality of life, improvement of symptoms (SCLC)
COc1ccc2c(Oc3ccc4c(C(=O)Nc5ccccc5N)cccc4c3)ccnc2c1 [Chiauranib, N-(2-aminophenyl)-6-(7-methoxyquinolin-4-oxy)-1-naphthamide] | effective | 60 | 20 | 2 | 33.3 | 4 | 66.7 | 14 | 100.0 | 0 | 0 | 16.5 (2.03, 133.37) | 4 | 145 days and 145.0 (23.0, 145.0) days | 27.5 days and 27.5 (16.0, 61.0) days | 
CC[C@@]1(O)C(=O)OCc2c1cc1n(c2=O)Cc2cc3c(CN(C)C)c(O)ccc3nc2-1 [topotecan] |  |  |  |  |  |  |  |  |  |  |  |  |  |  |  | significantly better
